Experimental data reported in publication PMC12498190, “A Photocaged N‐Phosphonopiperidinone as a Selective Photo‐Cleavable DPP8/9 Inhibitor” (Chembiochem, 2025).

Biological target: T1, prolyl endopeptidase (PREP) (Homo sapiens, UniProt P48147)
T1 construct: endogenous in cells; host or cells: HEK293 (Cytion, Germany, 300192)
T1 sequence (P48147 1-710): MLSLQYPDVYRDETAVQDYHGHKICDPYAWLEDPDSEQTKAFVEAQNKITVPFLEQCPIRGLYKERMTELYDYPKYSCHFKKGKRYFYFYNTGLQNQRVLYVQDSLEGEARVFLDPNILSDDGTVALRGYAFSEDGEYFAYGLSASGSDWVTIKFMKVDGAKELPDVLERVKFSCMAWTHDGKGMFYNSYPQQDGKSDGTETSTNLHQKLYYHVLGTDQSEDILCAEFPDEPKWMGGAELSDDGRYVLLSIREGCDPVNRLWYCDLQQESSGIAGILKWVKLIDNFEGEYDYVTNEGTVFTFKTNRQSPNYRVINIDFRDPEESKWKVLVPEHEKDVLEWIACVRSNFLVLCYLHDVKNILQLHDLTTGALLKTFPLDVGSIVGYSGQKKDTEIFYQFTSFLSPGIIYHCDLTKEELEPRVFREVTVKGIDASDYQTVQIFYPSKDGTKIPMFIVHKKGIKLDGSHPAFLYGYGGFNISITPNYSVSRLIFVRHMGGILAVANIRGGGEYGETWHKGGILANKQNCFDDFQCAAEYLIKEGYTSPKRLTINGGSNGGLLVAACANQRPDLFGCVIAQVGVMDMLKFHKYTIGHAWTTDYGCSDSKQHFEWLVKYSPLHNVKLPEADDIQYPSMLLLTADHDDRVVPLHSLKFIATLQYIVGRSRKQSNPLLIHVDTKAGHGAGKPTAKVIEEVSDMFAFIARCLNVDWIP
Test: In vitro gel-based competitive ABPP in HEK293 cell lysates, 70 kDa band
Conditions: HEK293 lysate; 10 µM competitor, 30 min; 10 µM 2; green light 5 min
Description: Therefore, HEK293 cell lysates were pre‐incubated with 10 µM 5 or DMSO vehicle control for 30 min, followed by a labeling reaction with 2 µM of the serine hydrolase‐specific ABP fluorophosphonate‐alkyne (≡FP) or 10 µM 2 (Figure 2B). […] Of note, this band has been previously assigned as DPP9 (DPP8 would migrate in the same range, but is only expressed at low levels in the used cell line and therefore cannot be visualized by this approach).^[ [36] ^, [37] ^] […] Again, this labeling was observed regardless of prior irradiation. Subsequently, the competitive labeling experiment was conducted by pre‐incubation with compound 5, with or without subsequent irradiation.
Figure 2 Competitive ABPP with photo‐cleavable inhibitor 5 in HEK293 cells. […] HEK293 cells were irradiated with a green LED lamp in the presence of 0.5% DMSO for 5 min (‘light’), and cell viability was measured after 24 h. […] For both compounds, cell viability was measured under ‘dark’ (not irradiated) and ‘light’ (irradiated for 5 min with a green LED lamp after the addition of the inhibitor) conditions. […]
For in vitro ABPP, cell lysates were generated from HEK293 cells grown on a 10 cm tissue dish. […] The cell lysates were cleared via centrifugation (30 min, 20,817 × g, 4 °C), and protein concentration was determined with a modified Bradford assay using Roti‐Nanoquant (Carl Roth, Germany). […]

CCCCCc1ccc(SCCP(=O)(OCC)N2CCC[C@H](NC(=O)OCC3=C4C(C)=CC(C)=[N+]4[B-](C)(C)n4c(C)cc(C)c43)C2=O)cc1 (stereo partly shown) [Compound 5]
Competition of PREP band labeling by ABP 2 (in words): slight reduction
